Series [1] has as its system HBeAg (surrogate marker for cccDNA) in HepDES19 cells. Put plainly: Engineered HepDES19 primary screen assay (HBeAg ELISA). It counts as cell-based, HBV. Particulars: Hepatitis B virus, HepDES19, 120 h, read-out: IC50 (HBeAg level, HepDES19 primary screen assay), HepDES19 cells, 5 days compound incubation, HBeAg ELISA. The method in brief: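 IC50 values come from 4-parameter logistic fits of HBeAg ELISA signal, the cccDNA surrogate, with CCK-8 run in parallel for viability. Compounds at half-log dilutions with 1% DMSO were applied for 5 days at 37 °C to HepDES19 cells previously cultured 8 days without Tet.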
A general note: ELISA stands for enzyme-linked immunosorbent assay.

Series [2] has as its system HBsAg in HBV-infected PHH. Briefly: Cryopreserved primary human hepatocytes (PHH) HBV infection assay, extracellular HBsAg (CLIA). The format is cell-based. Particulars: Hepatitis B virus, Hepatocyte, 216 h, read-out: HBsAg IC50, Cryopreserved PHH infected with HBV, 9 days post-compound treatment, extracellular HBsAg. The method in brief:
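Cryopreserved PHH were infected with 5.8×10^6 HBV genome equivalents in medium with 4% PEG8000 and 1% DMSO. After 9 days of treatment, extracellular HBsAg was measured by CLIA, and IC50 was derived from a 4-parameter logistic fit.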

The nature of series [3]: Human microsome stability assay. The note with it: human liver microsomes, 1 μM test compound, 0.5 mg/mL microsomal protein, 37° C., pH 7.4, 0-30 minutes. The format is in vitro ADME. A digest of the protocol: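 Parent compound remaining was measured by LC-MS/MS at 0, 3, 6, 9, 15 and 30 min, following ACN quench. Reactions held 1 μM compound and 0.5 mg/mL human liver microsomal protein in pH 7.4 phosphate buffer at 37 °C, started by NADPH regeneration (1 mM NADP, 1 mM MgCl2); controls lacked NADPH.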

Turning to `O=c1cc(-c2ccc(C(F)(F)F)cc2O[C@H]2C[C@H](C(=O)NS(=O)(=O)C3CC3)C2)oc2c(Cl)cccc12` [Example B043-B, trans-3-[2-(8-chloro-4-oxo-chromen-2-yl)-5-(trifluoromethyl)phenoxy]-N-cyclopropylsulfonyl-cyclobutanecarboxamide], the results for the IC50 in series [1] and in series [2] were 1.14 µM and 3.7 µM, respectively. Also, the “Clearance of Human microsome” value in series [3] is 6.15 mL/min/kg.
The corresponding values for `CS(=O)(=O)NC(=O)[C@H]1C[C@@H](Oc2cc(OC(F)(F)F)ccc2-c2cc(=O)c3cccc(Cl)c3o2)C1` [Example B047-A, Cis-3-[2-(8-chloro-4-oxo-chromen-2-yl)-5-(trifluoromethoxy)phenoxy]-N-methylsulfonyl-cyclobutanecarboxamide] are 1.96 µM, 5.54 µM and 6.15 mL/min/kg.
Regarding `COc1cc(O[C@H]2C[C@H](C(=O)NS(C)(=O)=O)C2)c(-c2cc(=O)c3cccc(Cl)c3o2)cc1C` [Example B050-B, Trans-3-[2-(8-chloro-4-oxo-chromen-2-yl)-5-methoxy-4-methyl-phenoxy]-N-methylsulfonyl-cyclobutanecarboxamide], the IC50 in series [1] was found to be 6.08 µM; in series [2], 9.46 µM. For the same molecule, the “Clearance of Human microsome” value in series [3] is 7.69 mL/min/kg.
The corresponding values for `Cc1ccc(-c2cc(=O)c3cccc(Cl)c3o2)c(O[C@H]2C[C@@H](C(=O)NS(C)(=O)=O)C2)c1` [Example B051-A, Cis-3-[2-(8-chloro-4-oxo-chromen-2-yl)-5-methyl-phenoxy]-N-methylsulfonyl-cyclobutanecarboxamide] are 6.18 µM, 3.21 µM and 6.15 mL/min/kg.
`Cc1ccc(-c2cc(=O)c3cccc(Cl)c3o2)c(O[C@H]2C[C@H](C(=O)NS(C)(=O)=O)C2)c1` [Example B051-B, Trans-3-[2-(8-chloro-4-oxo-chromen-2-yl)-5-methyl-phenoxy]-N-methylsulfonyl-cyclobutanecarboxamide]: the values for the IC50 in series [1] and in series [2] were 9.22 µM and 5.3 µM, respectively. The “Clearance of Human microsome” value in series [3] is on record as 6.97 mL/min/kg.
In the case of `Cc1ccc(-c2cc(=O)c3cccc(Cl)c3o2)c(O[C@H]2C[C@@H](C(=O)NS(=O)(=O)C3CC3)C2)c1` [Example B052-A, Cis-3-[2-(8-chloro-4-oxo-chromen-2-yl)-5-methyl-phenoxy]-N-cyclopropylsulfonyl-cyclobutanecarboxamide], the figures for the IC50 in series [1] and in series [2] were 10.7 µM and 8.48 µM, respectively. For the same molecule, the “Clearance of Human microsome” value in series [3] amounted to 6.15 mL/min/kg.
For `Cc1ccc(-c2cc(=O)c3cccc(Cl)c3o2)c(O[C@H]2C[C@H](C(=O)NS(=O)(=O)C3CC3)C2)c1` [Example B052-B, Trans-3-[2-(8-chloro-4-oxo-chromen-2-yl)-5-methyl-phenoxy]-N-cyclopropylsulfonyl-cyclobutanecarboxamide], the values for the IC50 in series [1] and in series [2] were 16.3 µM and 7.98 µM, respectively. Also, the “Clearance of Human microsome” value in series [3] is 6.15 mL/min/kg.
The corresponding values for `O=C(O)C(O)COc1cc(C(F)(F)F)ccc1-c1cc(=O)c2cccc(Cl)c2o1` (stereo not drawn) [Example B073, 3-[2-(8-chloro-4-oxo-chromen-2-yl)-5-(trifluoromethyl)phenoxy]-2-hydroxy-propanoic acid] are 1.04 µM, 5.97 µM and 6.15 mL/min/kg.
The matching figures for `O=C(O)[C@@H]1C[C@@H](Oc2cc(C(F)(F)F)ccc2-c2cc(=O)c3cccc(Cl)c3o2)CN1S(=O)(=O)c1ccccc1` [Example B076, (2S,4R)-1-(benzenesulfonyl)-4-[2-(8-chloro-4-oxo-chromen-2-yl)-5-(trifluoromethyl)phenoxy]pyrrolidine-2-carboxylic acid]: 0.111 µM, 1.31 µM and 6.15 mL/min/kg.
`O=C(O)[C@@H]1C[C@H](Oc2cc(Br)ccc2-c2cc(=O)c3cccc(Cl)c3o2)CN1S(=O)(=O)c1ccccc1` [Example B082]: the IC50 in series [1] came to 1.98 µM; in series [2] it was 4.8 µM. Also, the “Clearance of Human microsome” value in series [3] was determined as 6.15 mL/min/kg.
Take `O=C(O)[C@@H]1C[C@H](Oc2cc(Br)ccc2-c2cc(=O)c3cccc(Cl)c3o2)CN1S(=O)(=O)C1CC1` [Example B083, (2S,4S)-4-[5-bromo-2-(8-chloro-4-oxo-chromen-2-yl)phenoxy]-1-cyclopropylsulfonyl-pyrrolidine-2-carboxylic acid]: the IC50 was determined as 0.704 µM in series [1] and 3.24 µM in series [2]. The “Clearance of Human microsome” value in series [3] worked out at 6.15 mL/min/kg.
Consider `Cc1ccc(-c2cc(=O)c3cccc(Cl)c3o2)c(OCCCOCC(=O)O)c1` [Example C002, 2-[3-[2-(8-chloro-4-oxo-chromen-2-yl)-5-methyl-phenoxy]propoxy]acetic acid], for which the IC50 amounted to 0.348 µM in series [1] and 2.43 µM in series [2]. The “Clearance of Human microsome” value in series [3] is recorded as 6.15 mL/min/kg.
As for `O=C(O)COCCOc1cc(Br)ccc1-c1cc(=O)c2cccc(Cl)c2o1` [Example C006, 2-[2-[5-bromo-2-(8-chloro-4-oxo-chromen-2-yl)phenoxy]ethoxy]acetic acid], the IC50 stood at 1.26 µM in series [1] and 3.74 µM in series [2]. Moreover, the “Clearance of Human microsome” value in series [3] was determined as 6.15 mL/min/kg.
The matching figures for `Cc1cc(-c2cc(=O)c3cccc(Cl)c3o2)c(OCCCOCC(=O)O)cc1Br` [Example C011, 2-[3-[5-bromo-2-(8-chloro-4-oxo-chromen-2-yl)-4-methyl-phenoxy]propoxy]acetic acid]: 10.6 µM, 8.5 µM and 6.15 mL/min/kg.
The corresponding values for `COc1cc(-c2cc(=O)c3cccc(Cl)c3o2)c(OCCCOCC(=O)O)cc1Br` [Example C013, 2-[3-[5-bromo-2-(8-chloro-4-oxo-chromen-2-yl)-4-methoxy-phenoxy]propoxy]acetic acid] are 0.252 µM, 9.32 µM and 6.15 mL/min/kg.
The corresponding values for `O=C(O)COCCCOc1cc(OC(F)(F)F)ccc1-c1cc(=O)c2cccc(Cl)c2o1` [Example C014, 2-[3-[2-(8-chloro-4-oxo-chromen-2-yl)-5-(trifluoromethoxy)phenoxy]propoxy]acetic acid] are 2.19 µM, 7.8 µM and 8.04 mL/min/kg.
Consider `O=C(O)COCCCOc1cc2c(cc1-c1cc(=O)c3cccc(Cl)c3o1)OCO2` [Example C015, 2-[3-[[6-(8-chloro-4-oxo-chromen-2-yl)-1,3-benzodioxo1-5-yl]oxy]propoxy]acetic acid], for which the IC50 turned out to be 7.87 µM in series [1] and 3.36 µM in series [2]. Moreover, the “Clearance of Human microsome” value in series [3] came to 6.15 mL/min/kg.
The corresponding values for `COc1cc(-c2cc(=O)c3cccc(Cl)c3o2)c(OCCCOCC(=O)O)cc1Cl` [Example C016, 2-[3-[5-chloro-2-(8-chloro-4-oxo-chromen-2-yl)-4-methoxy-phenoxy]propoxy]acetic acid] are 2.46 µM, 7.14 µM and 6.15 mL/min/kg.
With `Cc1ccc(-c2cc(=O)c3cccc(Br)c3o2)c(OCCCOCC(=O)O)c1` [Example C017, 2-[3-[2-(8-bromo-4-oxo-chromen-2-yl)-5-methyl-phenoxy]propoxy]acetic acid], the IC50 in series [1] was 0.492 µM; in series [2], 2.94 µM. For the same molecule, the “Clearance of Human microsome” value in series [3] is 6.15 mL/min/kg.
On to `Cc1cc(-c2cc(=O)c3cccc(Cl)c3o2)c(OCCCOCC(=O)O)cc1Cl` [Example C019, 2-[3-[5-chloro-2-(8-chloro-4-oxo-chromen-2-yl)-4-methyl-phenoxy]propoxy]acetic acid], for which the IC50 worked out at 0.185 µM in series [1] and 3 µM in series [2]. Also, in series [3], the “Clearance of Human microsome” value is 6.71 mL/min/kg.
The matching figures for `O=c1cc(-c2ccccc2OCCO[C@H]2C[C@@H](C(=O)O)C2)oc2c(Cl)cccc12` [Example C025-A, Cis-3-[2-[2-(8-chloro-4-oxo-chromen-2-yl)phenoxy]ethoxy]cyclobutanecarboxylic acid]: 0.191 µM, 2.58 µM and 6.15 mL/min/kg.
The corresponding values for `O=c1cc(-c2ccccc2OCCO[C@H]2C[C@H](C(=O)O)C2)oc2c(Cl)cccc12` [Example C025-B, Trans-3-[2-[2-(8-chloro-4-oxo-chromen-2-yl)phenoxy]ethoxy]cyclobutanecarboxylic acid] are 0.205 µM, 2.02 µM and 6.15 mL/min/kg.
The matching figures for `O=c1cc(-c2ccc(C(F)(F)F)cc2OCCO[C@H]2C[C@@H](C(=O)O)C2)oc2c(Cl)cccc12` [Example C026, Cis-3-[2-[2-(8-chloro-4-oxo-chromen-2-yl)-5-(trifluoromethyl)phenoxy]ethoxy]cyclobutanecarboxylic acid]: 0.526 µM, 8.95 µM and 6.81 mL/min/kg.

As usually defined, the IC50 is the concentration that inhibits the measured activity by half.

Source of the values: patent publication US11708344B2, “Flavone derivatives for the treatment and prophylaxis of hepatitis B virus disease” (Hoffmann-La Roche Inc., priority 2018, dated 2023).
